Active and inactive are the calls of the source.

In experiment [1] the target is Beta-galactosidase (Escherichia coli, UniProt Q8VNN2). Kind of experiment: PubChem AID 485352. It counts as functional.
Experiment [2] has as its target Nucleotide-binding oligomerization domain-containing protein 2 (Homo sapiens, UniProt Q9HC29). Kind of experiment: inhibition of NOD2-driven NF-kB reporter – cell-based, luminescence, uHTS, HEK293 (AID 1566). It counts as functional.
Experiment [3] deals with HEK293. In words: cells. It counts as functional, cell-based. The note with it: Homo sapiens.
Experiment [4] has as its system HEK293. Kind of experiment: inhibition of NOD1-driven NF-kB reporter – cell-based, luminescence, uHTS, primary screen (AID 1578). The settings on record: Homo sapiens. It counts as functional.
Experiment [5] deals with T1, Type-1 angiotensin II receptor (Homo sapiens, UniProt P30556).
T1 sequence (P30556 whole entry): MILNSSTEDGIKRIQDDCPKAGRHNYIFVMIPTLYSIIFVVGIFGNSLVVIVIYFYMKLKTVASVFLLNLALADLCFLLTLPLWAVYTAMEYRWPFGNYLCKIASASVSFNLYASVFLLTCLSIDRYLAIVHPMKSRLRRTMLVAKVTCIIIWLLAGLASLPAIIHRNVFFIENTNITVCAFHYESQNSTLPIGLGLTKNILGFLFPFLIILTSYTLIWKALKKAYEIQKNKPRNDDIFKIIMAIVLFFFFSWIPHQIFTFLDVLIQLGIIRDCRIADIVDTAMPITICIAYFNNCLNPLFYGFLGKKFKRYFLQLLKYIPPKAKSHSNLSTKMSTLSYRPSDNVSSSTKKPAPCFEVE
Kind of experiment: antagonism of angiotensin II type 1 receptor – cell-based, uHTS hits, selectivity assay for APJ receptor antagonist project, dose response (AID 463214).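 Note: antagonist potency against angiotensin II stimulated AT1 response.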 It counts as functional.

In experiment [6] the test system is HEK293. In words: cells. It counts as functional, cell-based. The note with it: Homo sapiens. The source holds these as a separate data set.
Experiment [7] relates to INS1. Kind of experiment: INS-1E survival protection against cytokine death – cell-based, luminescence, retest, dose response (AID 449756).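 Note: cell death triggered by IL-1 beta plus TNF-alpha plus IFN-gamma mixture; protective hits raise ATP signal compared with cytokine alone wells.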 It counts as functional. The note with it: Rattus norvegicus.
Experiment [8] in a line: HEK-293T viability loss after treatment – luminescence, T-cell screen hits, cytotoxicity control for TCR NF-kB inhibitor project, dose response (AID 489026).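 Note: cells exposed to compound about 14 hours before the viability readout.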 It counts as functional, cell-based.
Experiment [9] is described as follows: fluconazole-exposed Candida albicans growth modulators – fluorescence, retest, confirmation (AID 2467). It counts as functional, cell-based.
Experiment [10] has as its system Vero. Kind of experiment: mammalian cell viability reduction – secondary assay, cytotoxicity control for West Nile virus antiviral project, dose response (AID 1650). It counts as functional. The settings on record: Chlorocebus sabaeus.
In experiment [11] the test system is HEK293. Kind of experiment: cells. It counts as functional, cell-based. The settings on record: Homo sapiens. The source holds these as a separate data set.
The subject of experiment [12] is HEK293. Kind of experiment: NOD2 signaling inhibitors in MDP-stimulated cells, cell-based, uHTS, luminescence (AID 2001). It counts as functional. The note with it: Homo sapiens.
Experiment [13] in a line: NIH-3T3 fibroblast cytotoxicity, dose response, cytotoxicity control, cell-based, fluorescence, Alamar Blue, secondary assay (AID 2327).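 Note: NIH-3T3 mouse fibroblasts cultured with fluconazole at 8 µg/mL.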 It counts as functional.
Experiment [14] concerns the target Cytochrome P450 2C19 (Homo sapiens, UniProt P33261). In words: Cytochrome panel assay with activity outcomes. Panel member name: p450-cyp2c19 Compounds with AC50 equal or less than 10 uM are considered active. It counts as functional. The note with it: read-out: AC50.
Experiment [15] deals with Vero. In words: cells. It counts as functional. The settings on record: Chlorocebus sabaeus.
In experiment [16] the test system is Vero. Kind of experiment: cells. It counts as functional, cell-based. The note with it: Chlorocebus sabaeus.
In experiment [17] the target is Cytochrome P450 2D6 (Homo sapiens, UniProt P10635).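 Note: CYP2D6 member of a cytochrome P450 panel assay.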
Experiment [18] addresses T2, Short transient receptor potential channel 4 (Mus musculus, UniProt Q9QUQ5).
T2 sequence (Q9QUQ5 whole entry): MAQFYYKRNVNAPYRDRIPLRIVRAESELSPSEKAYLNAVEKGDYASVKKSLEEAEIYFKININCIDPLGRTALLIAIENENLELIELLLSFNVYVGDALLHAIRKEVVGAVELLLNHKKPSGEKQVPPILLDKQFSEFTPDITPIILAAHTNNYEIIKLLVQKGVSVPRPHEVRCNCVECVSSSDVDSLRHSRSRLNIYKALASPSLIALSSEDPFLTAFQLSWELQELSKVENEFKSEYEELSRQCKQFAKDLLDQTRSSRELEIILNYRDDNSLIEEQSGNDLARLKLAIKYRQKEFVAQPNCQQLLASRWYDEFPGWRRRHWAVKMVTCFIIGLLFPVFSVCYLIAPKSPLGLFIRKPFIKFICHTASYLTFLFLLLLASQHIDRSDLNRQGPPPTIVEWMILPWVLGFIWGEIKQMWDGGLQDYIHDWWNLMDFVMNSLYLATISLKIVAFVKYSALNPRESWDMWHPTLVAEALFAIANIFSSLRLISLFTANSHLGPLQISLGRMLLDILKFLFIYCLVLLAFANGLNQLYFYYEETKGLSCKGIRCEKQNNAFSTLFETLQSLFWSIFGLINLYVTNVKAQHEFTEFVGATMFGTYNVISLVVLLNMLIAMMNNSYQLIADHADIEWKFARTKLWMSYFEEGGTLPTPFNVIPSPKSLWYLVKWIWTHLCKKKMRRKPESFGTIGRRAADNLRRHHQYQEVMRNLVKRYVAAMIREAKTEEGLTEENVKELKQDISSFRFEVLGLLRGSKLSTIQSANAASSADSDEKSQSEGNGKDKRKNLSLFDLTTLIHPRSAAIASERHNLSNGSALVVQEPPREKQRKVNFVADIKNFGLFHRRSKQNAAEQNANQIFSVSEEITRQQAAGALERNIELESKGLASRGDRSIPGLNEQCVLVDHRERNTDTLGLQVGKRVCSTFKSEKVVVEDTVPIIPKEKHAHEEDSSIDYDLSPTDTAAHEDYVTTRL
In words: calcium entry via TRPC4 opening agents – cell-based, HEK293 TRPC4/mu-opioid, Fluo-4 calcium, dose response (AID 434937). It counts as functional.

Experiment [19] addresses T3, Cytochrome P450 1A2 (Homo sapiens, UniProt P05177).
T3 sequence (P05177 whole entry): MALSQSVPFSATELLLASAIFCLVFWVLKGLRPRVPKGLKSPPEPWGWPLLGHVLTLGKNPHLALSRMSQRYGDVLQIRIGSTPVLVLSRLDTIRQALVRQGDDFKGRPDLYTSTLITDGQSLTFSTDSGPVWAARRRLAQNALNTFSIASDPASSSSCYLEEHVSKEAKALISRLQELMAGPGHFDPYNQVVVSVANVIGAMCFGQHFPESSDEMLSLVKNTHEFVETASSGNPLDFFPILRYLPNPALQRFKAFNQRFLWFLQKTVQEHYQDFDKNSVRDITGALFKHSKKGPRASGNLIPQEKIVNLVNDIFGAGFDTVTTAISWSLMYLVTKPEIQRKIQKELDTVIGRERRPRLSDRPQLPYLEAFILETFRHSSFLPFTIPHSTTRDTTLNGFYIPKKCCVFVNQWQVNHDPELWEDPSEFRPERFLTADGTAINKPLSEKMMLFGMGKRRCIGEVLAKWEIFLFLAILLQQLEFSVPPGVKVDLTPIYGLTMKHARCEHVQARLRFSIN

Experiment [20] has as its target T4, Protein RecA (Mycobacterium tuberculosis, UniProt P9WHJ3).
T4 sequence (P9WHJ3 whole entry): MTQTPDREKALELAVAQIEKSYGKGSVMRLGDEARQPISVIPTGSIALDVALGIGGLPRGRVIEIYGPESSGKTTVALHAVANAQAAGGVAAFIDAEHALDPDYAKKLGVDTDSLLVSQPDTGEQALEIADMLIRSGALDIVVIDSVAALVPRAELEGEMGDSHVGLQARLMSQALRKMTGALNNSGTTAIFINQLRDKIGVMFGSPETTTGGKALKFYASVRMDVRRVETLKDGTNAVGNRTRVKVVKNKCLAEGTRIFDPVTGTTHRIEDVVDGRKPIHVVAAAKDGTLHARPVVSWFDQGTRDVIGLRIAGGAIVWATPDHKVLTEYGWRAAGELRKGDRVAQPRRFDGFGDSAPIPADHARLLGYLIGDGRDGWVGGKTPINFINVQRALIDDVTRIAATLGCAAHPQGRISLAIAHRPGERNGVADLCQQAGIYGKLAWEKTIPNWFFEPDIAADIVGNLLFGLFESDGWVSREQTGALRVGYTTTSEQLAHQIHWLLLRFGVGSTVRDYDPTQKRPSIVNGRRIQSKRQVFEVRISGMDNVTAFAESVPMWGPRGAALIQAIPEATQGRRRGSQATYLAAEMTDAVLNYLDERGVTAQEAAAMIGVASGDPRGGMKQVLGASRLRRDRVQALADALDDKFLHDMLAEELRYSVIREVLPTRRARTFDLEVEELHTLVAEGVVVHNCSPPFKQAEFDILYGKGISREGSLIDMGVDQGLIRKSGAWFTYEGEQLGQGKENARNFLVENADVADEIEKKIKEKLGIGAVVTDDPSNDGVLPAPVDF
In words: Fluorescence Cell-Free Homogeneous Dose Retest to Identify Inhibitors of RecA-Intein Splicing Activity. [Related pubchem assays (depositor defined):AID2097, AID2223, AID489010, AID492950]. It counts as functional.

The target of experiment [21] is T5, Replicative DNA helicase DnaB (Mycobacterium tuberculosis, UniProt P9WMR3).
T5 sequence (P9WMR3 whole entry): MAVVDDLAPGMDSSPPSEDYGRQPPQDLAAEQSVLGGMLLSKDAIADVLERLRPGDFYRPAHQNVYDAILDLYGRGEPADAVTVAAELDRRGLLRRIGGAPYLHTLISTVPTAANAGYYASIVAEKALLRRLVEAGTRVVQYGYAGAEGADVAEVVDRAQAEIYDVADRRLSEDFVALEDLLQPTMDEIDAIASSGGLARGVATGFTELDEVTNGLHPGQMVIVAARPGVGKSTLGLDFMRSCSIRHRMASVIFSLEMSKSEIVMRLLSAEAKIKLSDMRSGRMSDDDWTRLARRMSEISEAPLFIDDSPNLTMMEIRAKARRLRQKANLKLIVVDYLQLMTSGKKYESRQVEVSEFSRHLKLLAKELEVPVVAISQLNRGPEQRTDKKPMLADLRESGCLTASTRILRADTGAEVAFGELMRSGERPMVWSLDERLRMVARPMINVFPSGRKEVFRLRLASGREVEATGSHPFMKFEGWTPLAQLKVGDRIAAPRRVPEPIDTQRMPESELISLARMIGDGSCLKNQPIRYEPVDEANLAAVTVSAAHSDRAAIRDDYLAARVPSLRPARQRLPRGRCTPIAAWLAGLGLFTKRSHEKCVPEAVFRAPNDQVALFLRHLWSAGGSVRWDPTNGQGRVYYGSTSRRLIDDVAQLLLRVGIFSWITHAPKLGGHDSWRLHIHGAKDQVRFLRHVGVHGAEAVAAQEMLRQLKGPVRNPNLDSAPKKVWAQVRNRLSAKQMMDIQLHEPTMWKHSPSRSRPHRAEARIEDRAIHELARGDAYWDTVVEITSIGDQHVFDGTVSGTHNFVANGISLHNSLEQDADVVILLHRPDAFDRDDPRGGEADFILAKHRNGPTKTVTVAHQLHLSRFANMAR
In words: DnaB intein splicing inhibitors, dose response, biochemical, cell-free fluorescence (AID 449749). It counts as functional.

Sequence of Beta-galactosidase (Q8VNN2 whole entry, the tested form may be a part): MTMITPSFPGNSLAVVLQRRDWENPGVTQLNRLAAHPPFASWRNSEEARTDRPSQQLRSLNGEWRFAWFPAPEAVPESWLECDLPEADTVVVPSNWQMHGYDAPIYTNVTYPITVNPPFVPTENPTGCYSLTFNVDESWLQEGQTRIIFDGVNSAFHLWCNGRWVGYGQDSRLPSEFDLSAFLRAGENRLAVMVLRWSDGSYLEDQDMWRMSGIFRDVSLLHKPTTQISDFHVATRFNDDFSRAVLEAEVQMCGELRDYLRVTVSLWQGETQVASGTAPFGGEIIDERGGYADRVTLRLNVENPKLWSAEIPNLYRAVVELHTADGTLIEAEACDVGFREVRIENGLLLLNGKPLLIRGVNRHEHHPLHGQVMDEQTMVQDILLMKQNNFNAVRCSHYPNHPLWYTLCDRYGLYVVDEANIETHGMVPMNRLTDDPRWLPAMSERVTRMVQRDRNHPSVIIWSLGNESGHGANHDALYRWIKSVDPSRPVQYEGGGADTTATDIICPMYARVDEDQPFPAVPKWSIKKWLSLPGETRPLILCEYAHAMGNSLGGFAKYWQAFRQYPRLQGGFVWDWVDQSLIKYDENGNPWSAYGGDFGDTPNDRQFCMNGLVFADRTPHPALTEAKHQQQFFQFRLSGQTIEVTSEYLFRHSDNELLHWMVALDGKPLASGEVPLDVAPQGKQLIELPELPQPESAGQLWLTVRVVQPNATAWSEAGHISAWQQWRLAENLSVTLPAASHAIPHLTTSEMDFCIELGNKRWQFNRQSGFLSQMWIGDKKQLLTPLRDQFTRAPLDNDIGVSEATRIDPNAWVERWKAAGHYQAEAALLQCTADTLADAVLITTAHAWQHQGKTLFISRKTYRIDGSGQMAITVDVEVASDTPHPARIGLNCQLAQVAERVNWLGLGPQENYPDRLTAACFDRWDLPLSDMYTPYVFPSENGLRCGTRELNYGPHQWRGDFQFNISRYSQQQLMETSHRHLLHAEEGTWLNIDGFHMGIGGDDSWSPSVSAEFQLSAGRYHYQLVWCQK
Sequence of Cytochrome P450 2C19 (P33261 whole entry): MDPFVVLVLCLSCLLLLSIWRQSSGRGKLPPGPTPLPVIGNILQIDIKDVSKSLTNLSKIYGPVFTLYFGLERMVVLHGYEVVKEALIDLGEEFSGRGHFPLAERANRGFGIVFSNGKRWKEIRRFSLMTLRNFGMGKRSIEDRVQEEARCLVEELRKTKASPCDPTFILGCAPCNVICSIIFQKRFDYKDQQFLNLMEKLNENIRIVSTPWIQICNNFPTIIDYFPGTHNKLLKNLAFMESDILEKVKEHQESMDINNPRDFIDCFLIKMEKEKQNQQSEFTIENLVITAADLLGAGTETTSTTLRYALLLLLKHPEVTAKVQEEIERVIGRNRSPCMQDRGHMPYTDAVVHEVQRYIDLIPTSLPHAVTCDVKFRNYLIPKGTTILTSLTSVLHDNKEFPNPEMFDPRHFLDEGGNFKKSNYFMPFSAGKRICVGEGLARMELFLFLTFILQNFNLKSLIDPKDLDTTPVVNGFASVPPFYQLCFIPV
Sequence of Cytochrome P450 2D6 (P10635 whole entry): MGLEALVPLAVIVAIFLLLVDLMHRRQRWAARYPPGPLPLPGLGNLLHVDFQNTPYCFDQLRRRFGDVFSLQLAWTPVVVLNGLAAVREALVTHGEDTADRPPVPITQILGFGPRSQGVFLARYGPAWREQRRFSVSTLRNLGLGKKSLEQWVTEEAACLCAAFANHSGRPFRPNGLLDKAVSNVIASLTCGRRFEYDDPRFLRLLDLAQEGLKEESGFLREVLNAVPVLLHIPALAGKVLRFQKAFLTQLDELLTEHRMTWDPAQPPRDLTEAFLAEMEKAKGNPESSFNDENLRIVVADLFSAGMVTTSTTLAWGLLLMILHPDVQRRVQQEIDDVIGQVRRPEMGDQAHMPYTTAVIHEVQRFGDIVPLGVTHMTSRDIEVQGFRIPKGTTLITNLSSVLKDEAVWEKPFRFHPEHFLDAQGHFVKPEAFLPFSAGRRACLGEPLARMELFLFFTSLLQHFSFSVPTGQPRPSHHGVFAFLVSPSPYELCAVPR
Sequence of Nucleotide-binding oligomerization domain-containing protein 2 (Q9HC29 whole entry, the tested form may be a part): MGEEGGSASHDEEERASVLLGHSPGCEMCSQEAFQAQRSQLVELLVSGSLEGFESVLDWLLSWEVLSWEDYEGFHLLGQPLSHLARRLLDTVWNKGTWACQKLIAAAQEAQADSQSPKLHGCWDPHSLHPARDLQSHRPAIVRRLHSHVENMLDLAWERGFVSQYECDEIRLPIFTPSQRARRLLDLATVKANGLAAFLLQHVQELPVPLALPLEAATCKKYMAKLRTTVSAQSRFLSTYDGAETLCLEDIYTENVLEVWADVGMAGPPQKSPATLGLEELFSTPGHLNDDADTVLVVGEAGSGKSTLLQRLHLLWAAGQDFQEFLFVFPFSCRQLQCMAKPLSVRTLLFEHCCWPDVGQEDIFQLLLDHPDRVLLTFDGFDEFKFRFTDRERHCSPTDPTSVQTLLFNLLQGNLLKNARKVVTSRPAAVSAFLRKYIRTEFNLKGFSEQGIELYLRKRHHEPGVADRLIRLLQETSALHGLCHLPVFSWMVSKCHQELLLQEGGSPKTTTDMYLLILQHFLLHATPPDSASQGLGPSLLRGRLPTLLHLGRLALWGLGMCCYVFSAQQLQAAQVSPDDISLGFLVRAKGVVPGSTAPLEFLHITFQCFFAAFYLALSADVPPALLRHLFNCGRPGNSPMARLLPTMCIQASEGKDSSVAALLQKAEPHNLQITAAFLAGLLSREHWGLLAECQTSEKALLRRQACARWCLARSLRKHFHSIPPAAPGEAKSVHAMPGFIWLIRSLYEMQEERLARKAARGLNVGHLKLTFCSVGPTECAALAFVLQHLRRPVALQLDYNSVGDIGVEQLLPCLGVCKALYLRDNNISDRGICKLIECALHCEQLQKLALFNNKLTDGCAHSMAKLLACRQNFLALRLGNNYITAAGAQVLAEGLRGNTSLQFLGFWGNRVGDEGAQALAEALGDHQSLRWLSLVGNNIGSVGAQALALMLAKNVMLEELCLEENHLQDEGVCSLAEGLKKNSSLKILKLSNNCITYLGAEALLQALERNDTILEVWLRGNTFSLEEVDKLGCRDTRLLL

Turning to `Cc1ccc(C)c(N=Nc2ccc(O)c3ncccc23)c1`, the EC50 was > 40 µM (inactive) in experiment [1]; > 20 µM (inactive) in experiment [2]; 4.12 µM (active) in experiment [4]; 1.57 µM (active) in experiment [9]; 17 µM (active) in [13]. Also, the IC50 was > 20 µM (inactive) in [3]; 9.84 µM (active) in experiment [5]; 1.89 µM (active) in experiment [6]; > 80 µM (inactive) in experiment [8]; > 20 µM (inactive) in [11]; 3 µM (active) in [12]. Further, the concentration at half-maximal activity (AC50) in experiment [7] is 1.29 µM (active). Besides, the CC50 in experiment [10] was 6.64 µM (active).

`COc1ccc(C(=O)NC(=S)NNC(=O)CCc2ccccc2)cc1`: the AC50 was 14.1 µM (inconclusive) in experiment [14], 15.8 µM (inconclusive) in experiment [17], 15.8 µM (inconclusive) in experiment [19] and > 380 µM (inactive) in [21]. In experiment [15], the CC50 is 24.2 µM (active). In addition, in [16], the IC50 is 24.6 µM (active). For the same compound, the EC50 is 5.96 µM (active) in [18], > 380 µM (inactive) in experiment [20], 2.16 µM (active) in experiment [9] and > 150 µM (inconclusive) in experiment [13].

(Values after ChEMBL document CHEMBL1201862, “PubChem BioAssay data set” (2004).)
